Legend:
[1] = Comparative active ester reactivity study with HOPO nucleophile; conditions: 1,2-HOPO 1 eq., 22±2° C.
Description: (§1) General Experimental Protocol for Comparative Active Ester Reactivity Study with HOPO or HOA Nucleophiles
(§2) To a 4 mL scintillation vial containing Compound A-E (in respective experiments; 1 eq.) was added a stir bar followed by 150 μL of HPLC grade acetonitrile. In another 4 mL scintillation vial containing a respective nucleophile (1 eq.) was added 280 μL HPLC grade water. The solutions were combined and allowed to stir at room temperature (22±2° C.) for 4 hours. Timed aliquots at time (T)=15, 30, 60, 120 and 240 minutes were taken and analyzed by HPLC-MS using elution method 1 (Table 1).

[2] = Comparative active ester reactivity study with HOA nucleophile (benzhydroxamic acid); conditions: Benzhydroxamic Acid 1 eq., 22±2° C.
Description: as §1, §2

[3] = Comparative active ester reactivity study with HOA nucleophile (N-hydroxy-N-methylbenzamide); conditions: N-Hydroxy-N-methylbenzamide 1 eq., 22±2° C.
Description: as §1, §2

[4] = Nucleophilic reactivity study with L-Lysine; conditions: L-Lysine 5 equiv, 15 min, 22±2° C.
Description: General Experimental Protocol for Nucleophilic Reactivity Study with L-Lysine
To a 4 mL scintillation vial containing Compound A-E (in respective experiments; 1 eq.) was added a stir bar followed by 70 μL of HPLC grade acetonitrile. In another 4 mL scintillation vial containing L-Lysine monohydrochloride (5 eq.) was added 130 μL HPLC grade water followed by diisopropylethylamine (5 eq.). The solutions were combined and allowed to stir at room temperature (22±2° C.). Timed aliquots at time (T)=15, 30, 60 and 120 minutes were taken and analyzed by HPLC-MS using elution method 1 (Table 2).

pH stability study = assay type: physicochemical; conditions: 20° C.
Description: To a 4 mL scintillation vial containing Compound A-E (in respective experiments; 0.8 mg) was added 4 mL of either a pH 3, pH 5 pH 7 or pH 9 buffer to create a 0.2 mg/mL solution. 2 mL of this solution was added to a 2 mL HPLC vial and placed in the auto sampler of an HPLC-MS at 20° C. Timed aliquots at time (T)=15, 30, 60, 120, 240 and 480 minutes were taken and analyzed by HPLC-MS using elution method 1 (Table 3). […]
pH 3 Buffer: Citric acid/Na2HPO4 (79.45 mL 0.1 M-citric acid and 20.55 mL 0.2-Na2HPO4) pH 5 Buffer: Citric acid/Na2HPO4 (48.50 mL 0.1 M-citric acid and 51.50 mL 0.2-Na2HPO4) pH 7 Buffer: Citric acid/Na2HPO4 (17.65 mL 0.1 M-citric acid and 82.35 mL 0.2-Na2HPO4) pH 9 Buffer: Sodium Carbonate/Sodium Bicarbonate (10 mL 0.1 M-Na2CO3 and 90 mL 0.1-NaHCO3)

[5] = Temperature stability study in H2O; assay type: physicochemical
Description: 20° C.: To a 4 mL scintillation vial containing Compound A-E (in respective experiments; 0.8 mg) was added 4 mL of HPLC grade water to create a 0.2 mg/mL solution. 2 mL of this solution was added to a 2 mL HPLC vial and placed in the auto sampler of an HPLC-MS at 20° C. Timed aliquots at time (T)=15, 30, 60, 120, 240 and 480 minutes were taken and analyzed by HPLC-MS using elution method 1 (Table 4).
50° C.: To a 4 mL scintillation vial containing Compound A-E (in respective experiments; 0.8 mg) was added a stir bar followed by 4 mL of HPLC grade water to create a 0.2 mg/mL solution. The vial was capped and allowed to stir in a 50° C. oil bath for 8 hours. Timed aliquots at time (T) =15, 30, 60, 120, 240 and 480 minutes were taken and analyzed by HPLC-MS using elution method 1 (Table 4).

DMSO stability study = assay type: physicochemical
Description: To a 4 mL scintillation vial containing Compound A-E (in respective experiments; 4 mg) was added a stir bar followed by 500 μL of anhydrous dimethyl sulfoxide and was allowed to stir at room temperature (22±2° C.) for 4 hours. Timed aliquots at time (T)=15, 30, 60, 120 and 240 minutes were taken, dissolved in water to achieve 2% DMSO composition and analyzed by HPLC-MS using elution method 1 (Table 5).

## O=C(CCc1cccnc1)ON1C(=O)CCC1=O [Compound E, 2,5-Dioxo-1-pyrrolidinyl 3-pyridinepropanoate]
[1]; 15 min
  % Active Ester Remaining: 15.47%
[1]; 30 min
  % Active Ester Remaining: 12.28%
[1]; 60 min
  % Active Ester Remaining: 11.06%
[1]; 120 min
  % Active Ester Remaining: 7.15%
[1]; 240 min
  % Active Ester Remaining: 3.69%
[2]; 15 min
  % Active Ester Remaining: 1.13%
[2]; 30 min
  % Active Ester Remaining: 0.85%
[2]; 60 min
  % Active Ester Remaining: 0.67%
[2]; 120 min
  % Active Ester Remaining: 0.49%
[2]; 240 min
  % Active Ester Remaining: 0.35%
[3]; 15 min
  % Active Ester Remaining: 32.07%
[3]; 30 min
  % Active Ester Remaining: 20.77%
[3]; 60 min
  % Active Ester Remaining: 11.58%
[3]; 120 min
  % Active Ester Remaining: 6.52%
[3]; 240 min
  % Active Ester Remaining: 4.21%
[4]
  % Active Ester Remaining: 0%
pH stability study; pH 3 buffer, 15 min
  % Remaining: 80.40%
pH stability study; pH 3 buffer, 30 min
  % Remaining: 59.68%
pH stability study; pH 3 buffer, 60 min
  % Remaining: 44.51%
pH stability study; pH 3 buffer, 120 min
  % Remaining: 26.16%
pH stability study; pH 3 buffer, 240 min
  % Remaining: 8.98%
pH stability study; pH 3 buffer, 480 min
  % Remaining: 1.00%
pH stability study; pH 5 buffer, 15 min
  % Remaining: 85.59%
pH stability study; pH 5 buffer, 30 min
  % Remaining: 52.98%
pH stability study; pH 5 buffer, 60 min
  % Remaining: 33.12%
pH stability study; pH 5 buffer, 120 min
  % Remaining: 13.81%
pH stability study; pH 5 buffer, 240 min
  % Remaining: 2.33%
pH stability study; pH 5 buffer, 480 min
  % Remaining: 0%
pH stability study; pH 7 buffer, 15 min
  % Remaining: 86.24%
pH stability study; pH 7 buffer, 30 min
  % Remaining: 44.91%
pH stability study; pH 7 buffer, 60 min
  % Remaining: 19.80%
pH stability study; pH 7 buffer, 120 min
  % Remaining: 4.02%
pH stability study; pH 7 buffer, 240 min
  % Remaining: 0%
pH stability study; pH 9 buffer, 15 min
  % Remaining: 6.98%
pH stability study; pH 9 buffer, 30 min
  % Remaining: 1.20%
pH stability study; pH 9 buffer, 60 min
  % Remaining: 0.74%
pH stability study; pH 9 buffer, 120 min
  % Remaining: 0%
[5]; 20° C., 15 min
  % Remaining: 87.24%
[5]; 20° C., 30 min
  % Remaining: 78.45%
[5]; 20° C., 60 min
  % Remaining: 70.03%
[5]; 20° C., 120 min
  % Remaining: 54.46%
[5]; 20° C., 240 min
  % Remaining: 24.99%
[5]; 20° C., 480 min
  % Remaining: 4.50%
[5]; 50° C., 15 min
  % Remaining: 72.20%
[5]; 50° C., 30 min
  % Remaining: 47.31%
[5]; 50° C., 60 min
  % Remaining: 20.75%
[5]; 50° C., 120 min
  % Remaining: 3.50%
[5]; 50° C., 240 min
  % Remaining: 0.10%
[5]; 50° C., 480 min
  % Remaining: 0%
DMSO stability study; 15 min
  % Active Ester Remaining in DMSO at 22 ± 2° C.: 97.29%
DMSO stability study; 30 min
  % Active Ester Remaining in DMSO at 22 ± 2° C.: 97.13%
DMSO stability study; 60 min
  % Active Ester Remaining in DMSO at 22 ± 2° C.: 96.83%
DMSO stability study; 120 min
  % Active Ester Remaining in DMSO at 22 ± 2° C.: 94.53%
DMSO stability study; 240 min
  % Active Ester Remaining in DMSO at 22 ± 2° C.: 91.57%
